Results on two molecules are retold here after paper PMC3610419, “A Randomized, Double-Blind Placebo Controlled Trial of Balapiravir, a Polymerase Inhibitor, in Adult Dengue Patients” (The Journal of Infectious Diseases, 2012).

Like-named read-outs stand apart in the source and are kept apart here.

The subject of one series is DENV-1. The experiment in a line: Inhibition of DENV replication in Huh-7 cells, viral RNA by quantitative real time PCR. Conditions: 48 hrs, mean ± SD of 3 experiments. Format: cell-based, dengue virus. The method, then:
(§1) ^a Each experiment was done in duplicate. The mean and standard deviation shown represent 3 independent (different date) experiments for each virus tested. Huh-7 cells were plated in 96-well plate at 10,000 cells/well in DMEM containing 10 % FBS in 100 μl volume one day prior to set up of the assay. The following day the medium was aspirated off and diluted virus at a multiplicity of infection of 0.5 or media was added to the assay and control wells, respectively. The virus was allowed to attach to the cells for two hours at 37°C in a humidified 5% C02 atmosphere while the dilutions of the test molecule were prepared. Test molecules (or medium as a control) were added after aspiration of the virus-containing media 2 hours post-infection in 3-fold dilutions at a final DMSO concentration of 1%. After 48 hrs, cells were washed and cellular RNA were isolated. In this study, we used a quantitative real time PCR method to quantitate dengue viral RNA in Huh-7 in the presence of inhibitors. Viral RNA and endogenous 18S rRNA control (Applied Bio System) was quantified by a real time PCR assay using the following primers. Dengue Reverse (Common to all the serotypes): 5’-[…]-3’, Dengue forward serotype 1: 5’-[…]-3’, Dengue forward serotype 2 or 3: 5’-[…]-3’, Dengue forward serotype 4: 5’-[…] -3’ and Dengue probe (Common to all the serotypes): 5'-/56-FAM/[…]/3BHQ_1/-3'. Taqman was performed in duplicate. IC50 was obtained using the following calculations. First ΔCt was calculated by subtracting 18S rRNA CT value from dengue RNA CT value. ΔCts from duplicate taqman assay were averaged. Then ΔΔCt was obtained by subtracting the average ΔCt of non-treated sample from the treated sample average ΔCt. Relative quantification was calculated using the following formula. Relative quantification = 2^-averageΔΔCT. The 50% inhibitory concentrations (EC50) were calculated using the sigmoidal dose-response model in Microsoft XLfit.

A further series has as its system DENV-2. The series is described as above. In kind it is cell-based, dengue virus. Conditions: 48 hrs, mean ± SD of 3 experiments. The method, then: as §1
Another series deals with DENV-3. The description is as above. In kind it is cell-based, dengue virus. The conditions noted are these: 48 hrs, mean ± SD of 3 experiments. The method, then:
as §1

Another series has as its system DENV-4. The series is described as above. Format: cell-based, dengue virus. Conditions: 48 hrs, mean ± SD of 3 experiments. The method, then: as §1
The test system of series [1] is DENV reference strains and clinical isolates. The series is described as follows: Inhibition of DENV replication in Huh-7 cells, summary over all strains. Format: cell-based, dengue virus.
Experimental: The mean and standard deviation shown represent 3 independent (different date) experiments for each virus tested. Huh-7 cells were plated in 96-well plate at 10,000 cells/well in DMEM containing 10 % FBS in 100 μl volume one day prior to set up of the assay. The following day the medium was aspirated off and diluted virus at a multiplicity of infection of 0.5 or media was added to the assay and control wells, respectively. The virus was allowed to attach to the cells for two hours at 37°C in a humidified 5% C02 atmosphere while the dilutions of the test molecule were prepared. Test molecules (or medium as a control) were added after aspiration of the virus-containing media 2 hours post-infection in 3-fold dilutions at a final DMSO concentration of 1%. After 48 hrs, cells were washed and cellular RNA were isolated. In this study, we used a quantitative real time PCR method to quantitate dengue viral RNA in Huh-7 in the presence of inhibitors. Viral RNA and endogenous 18S rRNA control (Applied Bio System) was quantified by a real time PCR assay using the following primers. […] Taqman was performed in duplicate. […] First ΔCt was calculated by subtracting 18S rRNA CT value from dengue RNA CT value. ΔCts from duplicate taqman assay were averaged. […] Relative quantification was calculated using the following formula. Relative quantification = 2^-averageΔΔCT. […]
Series [2] concerns DENV-1, DENV-2, and DENV-4. The series is described as follows: Activity against DENV in primary human macrophages. Conditions: Dengue virus, Macrophage, DENV-1, DENV-2, DENV-4, data not shown, read-out: mean EC50 range. In kind it is cell-based.
Series [3] deals with DENV-1, DENV-2, and DENV-4. The series is described as follows: Activity against DENV in dendritic cells. Format: cell-based. The conditions noted are these: Dengue virus, Dendritic cell, DENV-1, DENV-2, DENV-4, data not shown, read-out: mean EC50 range.
A further series is described as follows: clinical. Conditions: human, in vivo. The method, then:
Randomization to treatment group was by computer-generated randomization sequencing in blocks of 2. Balapiravir was formulated in a 500-mg film-coated tablet. The placebo consisted of an identical looking tablet containing excipient only. All balapiravir and placebo tablets were provided by F. Hoffmann-La Roche. Patients in cohort 1 (n = 20) received 1500 mg of balapiravir or an identical placebo orally every 12 hours for 5 days (10 doses). The decision to dose escalate (to 3000 mg) was made after review of the partially unblinded group mean clinical and laboratory data acquired from patients in cohort 1. Patients in cohort 2 (n = 44) received 3000 mg of balapiravir or placebo orally twice a day for 5 days (10 doses).
Serum samples for pharmacokinetic investigations were collected at time 0 (predose) and 2, 4, 8, and 12 hours postdose on days 1 and 5. Pharmacokinetics parameters were calculated using noncompartmental methods.

The conditions of series [4]: cited from earlier work.

On to `C#C[C@@]1(O)[C@H](O)[C@@H](CO)O[C@H]1n1ccc2c(N)ncnc21` [NITD008, reference compound], for which the IC50 was 500 ± 100 nM in the series with DENV-1 (DENV-1 strain FR28 (clinical isolate)); 500 ± 200 nM in the series on DENV-1 (DENV-1 strain FR34 (clinical isolate)); 400 ± 100 nM in the series on DENV-1 (DENV-1 strain FR37 (clinical isolate)); 500 ± 200 nM in the series with DENV-1 (DENV-1 strain FR42 (clinical isolate)); 400 ± 100 nM with DENV-1 (DENV-1 strain Thsman); 500 ± 200 nM in the series on DENV-2 (DENV-2 strain 32/0102 (clinical isolate), Huh-7 cells). Besides, the IC50 with DENV-2 (DENV-2 strain 32/0140 (clinical isolate), Huh-7 cells) is 300 nM; with DENV-2 (DENV-2 strain 33/0051 (clinical isolate), Huh-7 cells), 400 ± 200 nM; in the series with DENV-2 (DENV-2 strain 33/0178 (clinical isolate), Huh-7 cells), 300 ± 200 nM; in the series with DENV-2 (DENV-2 strain Th36, Huh-7 cells), 500 ± 100 nM; in the series on DENV-3 (DENV-3 strain 33/0072 (clinical isolate), Huh-7 cells), 500 ± 200 nM; in the series with DENV-3 (DENV-3 strain 33/0096 (clinical isolate), Huh-7 cells), 300 ± 100 nM. Besides, the IC50 in the series with DENV-3 (DENV-3 strain 33/0177 (clinical isolate), Huh-7 cells) stood at 300 nM; with DENV-3 (DENV-3 strain 33/0253 (clinical isolate), Huh-7 cells), 600 nM; in the series with DENV-3 (DENV-3 strain H87, Huh-7 cells) it was 400 ± 100 nM; with DENV-4 (DENV-4 strain H241, Huh-7 cells) it was 600 ± 100 nM; in the series on DENV-4 (DENV-4 strain Phili/1567, Huh-7 cells), 100 ± 100 nM; in the series with DENV-4 (DENV-4 strain Senga/DA, Huh-7 cells) it was 300 ± 100 nM. The IC50 in the series on DENV-4 (DENV-4 strain Venz/JQ, Huh-7 cells) was 200 ± 100 nM; in series [1] (Huh-7 cells, range over DENV strains, read-out: Mean values of median inhibitory concentration (IC50)), 100 to 600 nM.

In the case of `[N-]=[N+]=N[C@]1(CO)O[C@@H](n2ccc(N)nc2=O)[C@H](O)[C@@H]1O` [R1479, 4′-azidocytidine], the EC50 fell in the range of 1.9 to 11 µM in series [1] (Dengue virus, Huh-7, read-out: mean half maximal effective concentration (EC50) values); 1300 to 3200 nM in series [2]; 5.2 to 6 µM in series [3]. The Cmax is 25 to 145 µM in the series “clinical”; 16.5 µM in the series “clinical” (1500 mg, Cmax); over 6 µM in the series “clinical” (1500 mg, plasma Cmax of R1479); 23.9 µM in the series “clinical” (3000 mg, Cmax). For the same molecule, in “clinical”, the “mean Cmin concentrations that may need to be exceeded for antiviral effects on DENV” value lay within 6.7 to 39 µM. Further, in [4] (500 mg balapiravir twice daily), the “Cmax above the HCV replicon EC50” value is over 5 fold. In addition, the “mean plasma trough level above the human serum adjusted HCV replicon EC50” value in series [4] (1500 mg balapiravir twice daily) is reported as 3.5 fold. For the same molecule, the “ratio of mean plasma trough level to human serum adjusted HCV replicon EC50” value is given as 4.9 in [4] (3000 mg balapiravir twice daily) and 7.8 in [4] (4500 mg balapiravir twice daily).
